Reference: article PMC7069944, “Amino acid levels determine metabolism and CYP450 function of hepatocytes and hepatoma cell lines” (Nature Communications, 2020)
pIC50: −log10 of the molar value. Values joined by “and” are separate entries in the source; they are usually repeats but may differ in a detail not shown here. Identical values can stand only once. Like-named read-outs stand apart in the source and are kept apart here.

How the values were obtained:
[1] = target: CYP2D6 (Homo sapiens, UniProt P10635); assay: Drug biotransformation cocktail: dextromethorphan
CYP2D6, sequence (P10635 whole entry): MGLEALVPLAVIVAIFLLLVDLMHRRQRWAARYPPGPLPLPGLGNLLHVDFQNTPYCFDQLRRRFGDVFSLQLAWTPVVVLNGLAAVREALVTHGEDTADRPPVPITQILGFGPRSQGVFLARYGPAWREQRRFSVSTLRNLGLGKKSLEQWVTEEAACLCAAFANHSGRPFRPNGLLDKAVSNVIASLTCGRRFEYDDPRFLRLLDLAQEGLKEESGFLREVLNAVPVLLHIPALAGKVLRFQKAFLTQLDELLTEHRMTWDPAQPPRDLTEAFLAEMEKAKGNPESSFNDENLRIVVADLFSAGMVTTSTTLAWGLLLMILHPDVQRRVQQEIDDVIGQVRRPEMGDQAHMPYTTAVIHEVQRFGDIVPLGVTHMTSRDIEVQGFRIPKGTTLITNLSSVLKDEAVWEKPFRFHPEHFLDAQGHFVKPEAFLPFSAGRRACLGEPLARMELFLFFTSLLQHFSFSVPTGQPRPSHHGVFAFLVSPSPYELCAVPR
Protocol: (§1) Comparative CYP450 biotransformation studies were performed to assess functionality across a number of gold standard primary hepatocyte models. Cryopreserved PHHs were obtained from a single donor (Lonza, Breda, The Netherlands) or pooled donors (Thermo Scientific, Merelbeke, Belgium). Upon thawing, cell suspensions (0.5 million cells/ml) were prepared in WE medium using 24-well plates (0.5 ml/well) on an orbital shaker and metabolization activity was assessed following a 15 min equilibration period. Human Hepatopac® plates were obtained from Ascendance Biotechnology (Ascendance Biotechnology, Boston USA) and cultures were maintained following instructions of the provider. Spheroid cultures were generated in-house as essentially described by Bell et al.[42].
(§2) Finally, the system was re-equilibrated at 60% (A)/40% (B) for an additional 0.7 min. Total run time was 3.8 min and 2 µl aliquots were injected onto the system for analysis.
(§3) All data collection, processing, and analysis was performed with Analyst® software (v1.6.2. SCIEX).

[2] = tested on: CYP3A4; assay: qRT-PCR CYP3A4 expression in HepG2; assay type: cell-based, human; conditions: single amino acid supplementation, relative to CTL (CTL values equal HepG2 D7 CTL)
Protocol: AA supplementation was accomplished through the addition of MEM Non-Essential Amino Acids Solution (100 × ) and MEM Amino Acids Solution (50 × ) (Thermo Scientific) to the culture medium. For AA1, AA2, and AA3 medium, we added respectively 2 ml, 8 ml, and 16 ml of non-essential AA solution and 1 ml, 4 ml, and 8 ml of essential AA solution per 100 ml of LDM, with or without glucose. Culture medium was then made PH neutral through the addition of NaOH. […] PSC derived HLCs were differentiated in LDM until D12. AA supplementation (AA1, AA2 and AA3) was performed from day 12 until day 20, 30 or 40 of differentiation. […] HepG2, HUH7.5, Hep3B, HHL5, and HEK293 cells were maintained in DMEM supplemented with 10% fetal bovine serum as shown in Supplementary Table 4. AA supplementation consisted of addition of 16 ml of non-essential AA mix and 8 ml of essential AA mix per 100 ml of medium and a further addition of 20 g/l of any of the single AAs. […] PHHs were maintained in a medium composition that was based on WE as detailed in ref. [67].
RNA extraction was performed using the GenElute Mammalian Total RNA Miniprep Kit (Sigma-Aldrich). Then, genomic DNA was eliminated using the On-Column DNase I Digestion kit (Sigma-Aldrich). Last, 1 µg of RNA was transcribed to cDNA using the Superscript III First-Strand synthesis (Invitrogen). Gene expression analysis was performed using the Platinum SYBR green qPCR supermix-UDG kit (Invitrogen) in a ViiA 7 Real-Time PCR instrument (Thermo Scientific, Waltham, MA). The sequences of all used qRT-PCR primers are listed in Supplementary Table 6. Of these, ribosomal protein L19 (RPL19) was used as a housekeeping gene for normalization.

[3] = target: CYP3A4 (Homo sapiens, UniProt P08684); conditions: HepG2 AAGLY D32 and HC6X AAGLY D40, single exposure
CYP3A4 (Homo sapiens, UniProt P08684), sequence (P08684 whole entry): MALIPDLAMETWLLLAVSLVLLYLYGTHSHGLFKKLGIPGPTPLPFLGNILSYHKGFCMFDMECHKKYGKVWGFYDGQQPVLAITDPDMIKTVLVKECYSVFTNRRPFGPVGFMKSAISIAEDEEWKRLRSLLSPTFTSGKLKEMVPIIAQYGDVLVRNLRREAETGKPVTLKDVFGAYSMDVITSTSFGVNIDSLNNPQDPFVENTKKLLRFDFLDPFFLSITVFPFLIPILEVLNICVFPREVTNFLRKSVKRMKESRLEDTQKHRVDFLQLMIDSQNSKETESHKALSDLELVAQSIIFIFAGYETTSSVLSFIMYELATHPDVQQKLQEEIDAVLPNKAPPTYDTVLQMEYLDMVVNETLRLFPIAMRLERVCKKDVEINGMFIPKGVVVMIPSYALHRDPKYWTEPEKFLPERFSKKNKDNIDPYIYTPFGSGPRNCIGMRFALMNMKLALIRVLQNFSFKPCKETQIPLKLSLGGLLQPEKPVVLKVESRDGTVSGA
Protocol: as §1, §2, §3

[4] = tested on: HLCs; assay: Single-exposure toxicity, Hoechst/DRAQ7 live cell number, HLCs
Protocol: (§4) PSCs were differentiated in a 384-well format. Cells were treated with 14 different concentrations of compounds in 6 repeats. As a negative control, 41 wells were left untreated. HepG2 were seeded at 40,000 cells per well. For control conditions, HepG2 were exposed after 2 days of culture. […] Cells were fixed with 4% PFA. Imaging was done using an Operetta High-Content Imaging System (Perkin Elmer) and image analysis was performed using Harmony software (Perkin Elmer). […] As a positive control, 1 donor of PHHs was seeded at 10,000 cells per well. Drugs were administrated after 8 h of attachment.

[5] = tested on: HepG2; assay: Single-exposure toxicity, Hoechst/DRAQ7 live cell number, HepG2; conditions: for pIC50: Homo sapiens
Protocol: as §4

[6] = tested on: PHHs; assay: Single-exposure toxicity, Hoechst/DRAQ7 live cell number, PHH 12 h; conditions: Homo sapiens, read-out: IC50 single exposure, Mean
Protocol: as §4

[7] = tested on: HC6X in the H9-ESC background; assay: Single-exposure toxicity, Hoechst/DRAQ7 live cell number, HC6X (H9-ESC); conditions: Homo sapiens
Protocol: as §4

[8] = tested on: HC6X in the BJ1-iPSC background; assay: Single-exposure toxicity, Hoechst/DRAQ7 live cell number, HC6X (BJ1-iPSC); conditions: Homo sapiens
Protocol: as §4

COc1ccc2c(c1)[C@]13CCCC[C@@H]1[C@H](C2)N(C)CC3 [Dextrometrophan]
Dextrometrophan biotransformation (cocktail) ([1]; HC6X LDM D40): 0 | Dextrometrophan biotransformation (cocktail) ([1]; HepG2 AAGLY D32): 0 | Dextrometrophan biotransformation (cocktail) ([1]; HepG2 CTL D4): 0 | Dextrometrophan biotransformation (cocktail) ([1]; HepaRG diff D7): 0 | Dextrometrophan biotransformation (cocktail) ([1]; Hepatopac): 0.5629 and 0.7098 and 0.9714 | Dextrometrophan biotransformation (cocktail) ([1]; PHH1): 15.8656 and 14.7 and 17.4198

O=C(O)[C@@H]1CCCN1 [PRO, proline]
Relative CYP3A4 expression [2]: 252.463 and 338.714 and 412.836

N[C@@H](CO)C(=O)O [SER, serine]
Relative CYP3A4 expression [2]: 405.322 and 582.424 and 382.821

Cc1ncc2n1-c1ccc(Cl)cc1C(c1ccccc1F)=NC2 [midazolam]
midazolam biotransformation compared with PHHs [3]: equal to that of PHHs

C=C(C)[C@H]1Cc2c(ccc3c2O[C@@H]2COc4cc(OC)c(OC)cc4[C@@H]2C3=O)O1 [rotenone]
IC50 single exposure, Mean ([4]; H9 HLC LDM D40): No toxicity | pIC50 ([4]; Homo sapiens, read-out: IC50 single exposure, Mean): 8.27 | IC50 single exposure, Mean ([5]; HepG2 CTL D7): No toxicity | pIC50 ([5]; HepG2, read-out: IC50 single exposure, Mean, HepG2 AAGLY D30): 9.05 | pIC50 ([5]; HepG2, read-out: IC50 single exposure, Mean, HepG2 AAGLY D40): 8.60 | pIC50 [6]: 8.89 | pIC50 ([7]; read-out: IC50 single exposure, Mean, H9 HC6X AAGLY D40): 8.08 | pIC50 ([7]; read-out: IC50 single exposure, Mean, H9 HC6X AAGLY D50): 8.38 | pIC50 ([8]; read-out: IC50 single exposure, Mean, BJ1 HC6X AAGLY D40): 8.59 | pIC50 ([8]; read-out: IC50 single exposure, Mean, BJ1 HC6X AAGLY D50): 8.12
